In patent publication US20070009563A1, “PROCESS FOR COATING FIBER OR FABRIC WITH INSECTICIDE USING A TEMPERATURE OF 150°C-190°C FOR DRYING” (priority 2005, published 2007):

Assays:
[1] = Quantity of deltamethrin on mosquito net fabric before and after washing (WHO washing procedure standard); assay type: physicochemical; details: for Deltamethrin on the fabric, After Washing 5 Times: after 5 washes; for Deltamethrin on the fabric, After Washing 10 Times: after 10 washes; for Deltamethrin on the fabric, After Washing 15 Times: after 15 washes; for Deltamethrin on the fabric, After Washing 20 Times: after 20 washes
Excerpt: In addition, the temperatures used for drying the fabric in the manufacturing process affect washing resistance. That is, the fabric which is dried at higher temperature can resist washing better than the fabric that is dried at lower temperature.

[2] = system: mosquitoes; assay: Efficiency test for mosquito net dipped in insecticide: 3 minutes contact, knock down and mortality; assay type: in vivo; details: for % KD, After Washing 5 Times / % mort., After Washing 5 Times: after 5 washes; for % KD, After Washing 5 Times / % KD, After Washing 10 Times / % KD, After Washing 15 Times / % KD, After Washing 20 Times / % KD, Before Washing: knock down after 60 minutes; for % mort., After Washing 5 Times / % mort., After Washing 10 Times / % mort., After Washing 15 Times / % mort., After Washing 20 Times / % mort., Before Washing: mortality after 24 hours; for % KD, After Washing 10 Times / % mort., After Washing 10 Times: after 10 washes; for % KD, After Washing 15 Times / % mort., After Washing 15 Times: after 15 washes; for % KD, After Washing 20 Times / % mort., After Washing 20 Times: after 20 washes
Description: The efficiency test for mosquito net dipped in insecticide/insect repellent is done by letting mosquitoes rest on the mosquito net for 3 minutes and then catching the mosquitoes, placing them in a clean container, and observing them to see which of the following conditions apply:
1. % Knock down (% KD): the number of mosquitoes that cannot move after 60 minutes, in some embodiments, must be more than 80%.
2. Mortality (% mort.): the mortality rate of mosquitoes after 24 hours, in some embodiments, must be more than 95%.

[3] = system: insects; details: with small dosages; cited from earlier work
[4] = Quantity of deltamethrin on mosquito net fabric after drying at various temperatures; assay type: physicochemical; details: polyester net coated at 55 mg/m^2
Description: High temperatures in the range of 150° C.-190° C. are used in the process of fabric drying according to the present invention to create fiber stability and strengthen chemicals used for stabilizing that fiber in order to make the insecticide adhere to the fiber. However, this temperature range affects the insecticide degradation. For example, coating of a polyester mosquito net with deltamethrin requires a deltamethrin concentration of 55 mg/m^2. The material is then dried at various temperatures using the same length of time for drying.
The ratio of deltamethrin degradation is also affected by the length of time for drying.

CC1(C)[C@H](C(=O)O[C@H](C#N)c2cccc(Oc3ccccc3)c2)[C@@H]1C=C(Br)Br [deltamethrin, Deltamethrin]
Deltamethrin on the fabric, After Washing 5 Times ([1]; drying temperature 150 °C): 40 mg/m^2 | Deltamethrin on the fabric, After Washing 10 Times ([1]; drying temperature 150 °C): 32 mg/m^2 | Deltamethrin on the fabric, After Washing 15 Times ([1]; drying temperature 150 °C): 16 mg/m^2 | Deltamethrin on the fabric, After Washing 20 Times ([1]; drying temperature 150 °C): 10 mg/m^2 | Deltamethrin on the fabric, Before Washing ([1]; drying temperature 150 °C): 55 mg/m^2 | Deltamethrin on the fabric, After Washing 5 Times ([1]; drying temperature 160 °C): 42 mg/m^2 | Deltamethrin on the fabric, After Washing 10 Times ([1]; drying temperature 160 °C): 36 mg/m^2 | Deltamethrin on the fabric, After Washing 15 Times ([1]; drying temperature 160 °C): 19 mg/m^2 | Deltamethrin on the fabric, After Washing 20 Times ([1]; drying temperature 160 °C): 12 mg/m^2 | Deltamethrin on the fabric, Before Washing ([1]; drying temperature 160 °C): 55 mg/m^2 | Deltamethrin on the fabric, After Washing 5 Times ([1]; drying temperature 170 °C): 44 mg/m^2 | Deltamethrin on the fabric, After Washing 10 Times ([1]; drying temperature 170 °C): 38 mg/m^2 | Deltamethrin on the fabric, After Washing 15 Times ([1]; drying temperature 170 °C): 22 mg/m^2 | Deltamethrin on the fabric, After Washing 20 Times ([1]; drying temperature 170 °C): 16 mg/m^2 | Deltamethrin on the fabric, Before Washing ([1]; drying temperature 170 °C): 55 mg/m^2 | Deltamethrin on the fabric, After Washing 5 Times ([1]; drying temperature 180 °C): 26 mg/m^2 | Deltamethrin on the fabric, After Washing 10 Times ([1]; drying temperature 180 °C): 20 mg/m^2 | Deltamethrin on the fabric, After Washing 15 Times ([1]; drying temperature 180 °C): 16 mg/m^2 | Deltamethrin on the fabric, After Washing 20 Times ([1]; drying temperature 180 °C): 4 mg/m^2 | Deltamethrin on the fabric, Before Washing ([1]; drying temperature 180 °C): 37 mg/m^2 | Deltamethrin on the fabric, After Washing 5 Times ([1]; drying temperature 190 °C): 19 mg/m^2 | Deltamethrin on the fabric, After Washing 10 Times ([1]; drying temperature 190 °C): 15 mg/m^2 | Deltamethrin on the fabric, After Washing 15 Times ([1]; drying temperature 190 °C): 8 mg/m^2 | Deltamethrin on the fabric, After Washing 20 Times ([1]; drying temperature 190 °C): 4 mg/m^2 | Deltamethrin on the fabric, Before Washing ([1]; drying temperature 190 °C): 25 mg/m^2 | % KD, After Washing 5 Times ([2]; drying temperature 150 °C): 100% | % mort., After Washing 5 Times ([2]; drying temperature 150 °C): 100% | % KD, After Washing 10 Times ([2]; drying temperature 150 °C): 100% | % mort., After Washing 10 Times ([2]; drying temperature 150 °C): 100% | % KD, After Washing 15 Times ([2]; drying temperature 150 °C): 100% | % mort., After Washing 15 Times ([2]; drying temperature 150 °C): 90% | % KD, After Washing 20 Times ([2]; drying temperature 150 °C): 95% | % mort., After Washing 20 Times ([2]; drying temperature 150 °C): 82% | % KD, Before Washing ([2]; drying temperature 150 °C): 100% | % mort., Before Washing ([2]; drying temperature 150 °C): 100% | % KD, After Washing 5 Times ([2]; drying temperature 160 °C): 100% | % mort., After Washing 5 Times ([2]; drying temperature 160 °C): 100% | % KD, After Washing 10 Times ([2]; drying temperature 160 °C): 100% | % mort., After Washing 10 Times ([2]; drying temperature 160 °C): 96% | % KD, After Washing 15 Times ([2]; drying temperature 160 °C): 100% | % mort., After Washing 15 Times ([2]; drying temperature 160 °C): 90% | % KD, After Washing 20 Times ([2]; drying temperature 160 °C): 96% | % mort., After Washing 20 Times ([2]; drying temperature 160 °C): 80% | % KD, Before Washing ([2]; drying temperature 160 °C): 100% | % mort., Before Washing ([2]; drying temperature 160 °C): 100% | % KD, After Washing 5 Times ([2]; drying temperature 170 °C): 100% | % mort., After Washing 5 Times ([2]; drying temperature 170 °C): 100% | % KD, After Washing 10 Times ([2]; drying temperature 170 °C): 100% | % mort., After Washing 10 Times ([2]; drying temperature 170 °C): 100% | % KD, After Washing 15 Times ([2]; drying temperature 170 °C): 100% | % mort., After Washing 15 Times ([2]; drying temperature 170 °C): 90% | % KD, After Washing 20 Times ([2]; drying temperature 170 °C): 95% | % mort., After Washing 20 Times ([2]; drying temperature 170 °C): 82% | % KD, Before Washing ([2]; drying temperature 170 °C): 100% | % mort., Before Washing ([2]; drying temperature 170 °C): 100% | % KD, After Washing 5 Times ([2]; drying temperature 180 °C): 100% | % mort., After Washing 5 Times ([2]; drying temperature 180 °C): 82% | % KD, After Washing 10 Times ([2]; drying temperature 180 °C): 95% | % mort., After Washing 10 Times ([2]; drying temperature 180 °C): 62% | % KD, After Washing 15 Times ([2]; drying temperature 180 °C): 82% | % mort., After Washing 15 Times ([2]; drying temperature 180 °C): 22% | % KD, After Washing 20 Times ([2]; drying temperature 180 °C): 84% | % mort., After Washing 20 Times ([2]; drying temperature 180 °C): 0% | % KD, Before Washing ([2]; drying temperature 180 °C): 100% | % mort., Before Washing ([2]; drying temperature 180 °C): 98% | % KD, After Washing 5 Times ([2]; drying temperature 190 °C): 100% | % mort., After Washing 5 Times ([2]; drying temperature 190 °C): 68% | % KD, After Washing 10 Times ([2]; drying temperature 190 °C): 95% | % mort., After Washing 10 Times ([2]; drying temperature 190 °C): 18% | % KD, After Washing 15 Times ([2]; drying temperature 190 °C): 44% | % mort., After Washing 15 Times ([2]; drying temperature 190 °C): 0% | % KD, After Washing 20 Times ([2]; drying temperature 190 °C): 16% | % mort., After Washing 20 Times ([2]; drying temperature 190 °C): 0% | % KD, Before Washing ([2]; drying temperature 190 °C): 100% | % mort., Before Washing ([2]; drying temperature 190 °C): 96% | effectiveness relative to permethrin [3]: more than 30 times | Deltamethrin on the fabric of mosquito net after drying ([4]; drying temperature 150 °C): 55 mg/m^2 | Deltamethrin on the fabric of mosquito net after drying ([4]; drying temperature 160 °C): 55 mg/m^2 | Deltamethrin on the fabric of mosquito net after drying ([4]; drying temperature 170 °C): 55 mg/m^2 | Deltamethrin on the fabric of mosquito net after drying ([4]; drying temperature 180 °C): 37 mg/m^2 | Deltamethrin on the fabric of mosquito net after drying ([4]; drying temperature 190 °C): 25 mg/m^2
